Laboratory results as given in BindingDB's records for doi:10.1021/jf901979k (University of Lleida, 2009).

Assay: Inhibition of esterase in male Ostrinia nubilalis (European corn borer) antenna

Structure (SMILES)	IC50 [µM]
CC/C=C\CCCCCCCCCC(=O)C(F)(F)F [(Z)-10-tridecenyl trifluoromethyl ketone]	7.5
CC/C=C\CCCCCCCCCCC(=O)C(F)(F)F [(Z)-11-tetradecenyl trifluoromethyl ketone]	0.28
